Experimental data: patent US4156777A, “Process for producing glucopyranose-nitrosourea compounds and novel compounds included therein” (Tokyo Tanabe Company, Limited, priority 1977, dated 1979)
Converted amounts (≈) assume the structure as drawn.

Assays:
[1] = Absorption and excretion of 14C-labelled compounds; format: in vivo, rats; details: for dose excreted in expiration: within 24 hours
Method: The carbon atom at the 2-position of the chloroethyl group (i.e. ClCH2 CH2 -) of 6DCNU and 6MCαG was labelled with radioactive ^14 C, and the absorption and excretion of these compounds were tested using rats.

[2] = Effect on respiration, blood pressure, heart rate and electrocardiogram; format: in vivo, Beagle dogs; details: dog, in vivo, iv; injected into brachial veins, anesthetized Beagle dogs; read-out: maximum dosage not effected on respiration, blood pressure, heart rate and electrocardiogram
Method: Beagle dogs of both sexes weighing about 10 kg were anesthetized with pentobarbital sodium (30 mg/kg, i.v.), and immobilized in the supine position. Test compounds dissolved in physiological saline solution were injected into the brachial veins of the animals and the arteries at cannulated positions were treated with heparin sodium as anticoagulant.
The respiration rate of each animal was estimated with a respirometer (Nihonkohden, RP-3) through a tracheal cannula, the blood pressure with an electro-haemodynamometer (Nihonkohden, MP-4T) attached surgically to the femoral artery, and the heart rate with a pulse-rate tachometer (Nihonkohden, RT-2) through the trigger pulse of the blood pressure.

[3] = Solubility in water at 25° C.; format: physicochemical; details: amount soluble in 1 ml water at 25° C.
[4] = known compounds, generally seen; cited from earlier work
leukemia L-1210 = assay: Antitumor activity against leukemia L-1210 implanted in BDF1 mice (ILS, 60 days survivors); format: in vivo
Source text: Test compounds were given to BDF1 mice 24 hrs after implantation of 10^6 cells of leukemia L-1210 in each animal, through single intraperitoneal administration, intraperitoneal administration for 5 successive days, single oral administration or oral administration for 5 successive days, whereupon the increase in life span (referred to as "ILS") and number of 60 days survivors of test animals were estimated, said test of antitumor activity being that according to the method of the National Cancer Center, Tokyo [A. Hoshi et al: Farmashia, 9 (1973), 464]. In the tests, the compounds were dissolved in physiological saline solution just before administration.
^a i.p.: intraperitoneal administration p.o: oral administration
D1 : single administration D1~5 : administration for 5
^b percentage calculated from mean survival time over control
^c survivors/six animals

[5] = Diabetogenic activity (blood glucose concentration after intravenous administration); format: in vivo, male Wister rats
Method: 40-96 mg/kg of the test compounds were administered intravenously to starved male Wister rats weighing 240-260 g each, and the blood glucose concentrations of the test animals were estimated by the glucose exidase method [L. L. Saloman et al: Anal. Chem., 31 (1959), 453], in which test the compounds were dissolved in physiological saline solution just before administration. […]

Acute toxicity (LD50) = format: in vivo, male Wister rats; details: rat, in vivo, after 1 week
Method: Test compounds were dissolved in physiological saline solution just before their dosage and administered to male Wister rats, intraperitoneally, intravenously and orally. After 1 week, the LD50 of each compound was calculated from the mortality of the test animals by the Lichfield-Wilcoxon Method.
i.v.: intravenous administration

With `O=NN(C[14CH2]Cl)C(=O)NC[C@H]1OC(O)[C@H](O)[C@@H](O)[C@@H]1O` (stereo partly drawn) [6DCNU-^14 C] the “dose excreted in urine” value ([1]; within 12 hours after the dose) was 65-70%, the “dose excreted in expiration” value [1] was 3-5% and the “dose excreted in faeces” value ([1]; within 72 hours) was 10-15%. For the same compound, the “dose excreted in urine” value ([1]; within 72 hours after the dose) was 75-80%.

For `CO[C@H]1O[C@H](CNC(=O)N(C[14CH2]Cl)N=O)[C@@H](O)[C@H](O)[C@H]1O` [6MCαG-^14 C], the “dose excreted in urine” value ([1]; within 12 hours after the dose) was 50-60%, the “dose excreted in expiration” value [1] was 3-4% and the “dose excreted in faeces” value ([1]; within 96 hours) was 5-6%. For the same compound, the “dose excreted in urine” value ([1]; within 96 hours after the dose) was 80-90%.

In the case of `O=NN(CCCl)C(=O)N[C@H]1C(O)O[C@H](CO)[C@@H](O)[C@@H]1O` (stereo partly drawn) [DCNU, 1-(2-chloroethyl)-3-(D-glucopyranos-2-yl)-1-nitrosourea], the NOAEL [2] is listed as 20 mg/kg, the solubility [3] is listed as 40 mg/mL (≈ 128 mM) and the “diabetogenic activity, decreasing order” value [4] is listed as “SZ>DCNU>GANU> 2MCαG≈6MCαG”. The ILS (leukemia L-1210; 1.6 mg/kg/day, i.p. D1~5) was over 143%, the “Survivors (60 days)” value (leukemia L-1210; 1.6 mg/kg/day, i.p. D1~5) was 1/6 and the ILS (leukemia L-1210; 1.6 mg/kg/day, p.o. D1~5) was -10%. The ILS (leukemia L-1210; 3.2 mg/kg/day, i.p. D1~5) was over 407%, the “Survivors (60 days)” value (leukemia L-1210; 3.2 mg/kg/day, i.p. D1~5) was 3/6 and the ILS (leukemia L-1210; 3.2 mg/kg/day, p.o. D1~5) was 6%. For the same compound, the ILS (leukemia L-1210; 4.5 mg/kg/day, i.p. D1~5) was over 406%, the “Survivors (60 days)” value (leukemia L-1210; 4.5 mg/kg/day, i.p. D1~5) was 3/6 and the ILS (leukemia L-1210; 6.3 mg/kg/day, i.p. D1) was over 265%. The “Survivors (60 days)” value (leukemia L-1210; 6.3 mg/kg/day, i.p. D1) was 3/6, the ILS (leukemia L-1210; 6.3 mg/kg/day, i.p. D1~5) was over 622% and the “Survivors (60 days)” value (leukemia L-1210; 6.3 mg/kg/day, i.p. D1~5) was 5/6. For the same compound, the ILS (leukemia L-1210; 6.3 mg/kg/day, p.o. D1~5) was 13%, the ILS (leukemia L-1210; 9.0 mg/kg/day, i.p. D1~5) was over 153% and the “Survivors (60 days)” value (leukemia L-1210; 9.0 mg/kg/day, i.p. D1~5) was 1/6. The ILS (leukemia L-1210; 12.5 mg/kg/day, i.p. D1) was over 418%, the “Survivors (60 days)” value (leukemia L-1210; 12.5 mg/kg/day, i.p. D1) was 4/6 and the ILS (leukemia L-1210; 12.5 mg/kg/day, p.o. D1~5) was 13%. The ILS (leukemia L-1210; 25.0 mg/kg/day, i.p. D1) was over 315%, the “Survivors (60 days)” value (leukemia L-1210; 25.0 mg/kg/day, i.p. D1) was 3/6 and the ILS (leukemia L-1210; 25.0 mg/kg/day, p.o. D1~5) was 13%. The ILS (leukemia L-1210; 50.0 mg/kg/day, i.p. D1) was -10%, the ILS (leukemia L-1210; 50.0 mg/kg/day, p.o. D1~5) was 15% and the ILS (leukemia L-1210; 100.0 mg/kg/day, p.o. D1~5) was 18%. The ILS (leukemia L-1210; 200.0 mg/kg/day, p.o. D1~5) was -23%, the “antitumor activity in oral administration, in words” value (leukemia L-1210; oral administration) was “no antitumor activity in oral administration” and the “Blood Glucose Concentration” value ([5]; 40 mg/kg i.v., 0 hr after treatment) was 67.5 mg/dL. The “Blood Glucose Concentration” value ([5]; 40 mg/kg i.v., 2 hr after treatment) was 87.2 mg/dL, the “Blood Glucose Concentration” value ([5]; 40 mg/kg i.v., 4 hr after treatment) was 74.6 mg/dL and the “Blood Glucose Concentration” value ([5]; 40 mg/kg i.v., 7 hr after treatment) was 85.3 mg/dL. The “Blood Glucose Concentration” value ([5]; 40 mg/kg i.v., 10 hr after treatment) was 110.2 mg/dL, the “Blood Glucose Concentration” value ([5]; 40 mg/kg i.v., 24 hr after treatment) was 142.2 mg/dL and the “Blood Glucose Concentration” value ([5]; 40 mg/kg i.v., 48 hr after treatment) was 229.4 mg/dL. For the same compound, the “Blood Glucose Concentration” value ([5]; 60 mg/kg i.v., 0 hr after treatment) was 68.2 mg/dL, the “Blood Glucose Concentration” value ([5]; 60 mg/kg i.v., 2 hr after treatment) was 88.4 mg/dL and the “Blood Glucose Concentration” value ([5]; 60 mg/kg i.v., 4 hr after treatment) was 72.4 mg/dL. For the same compound, the “Blood Glucose Concentration” value ([5]; 60 mg/kg i.v., 7 hr after treatment) was 92.1 mg/dL, the “Blood Glucose Concentration” value ([5]; 60 mg/kg i.v., 10 hr after treatment) was 115.7 mg/dL and the “Blood Glucose Concentration” value ([5]; 60 mg/kg i.v., 24 hr after treatment) was 162.6 mg/dL. The “Blood Glucose Concentration” value ([5]; 60 mg/kg i.v., 48 hr after treatment) was 242.3 mg/dL, the “Blood Glucose Concentration” value ([5]; 80 mg/kg i.v., 0 hr after treatment) was 70.5 mg/dL and the “Blood Glucose Concentration” value ([5]; 80 mg/kg i.v., 2 hr after treatment) was 90.3 mg/dL. For the same compound, the “Blood Glucose Concentration” value ([5]; 80 mg/kg i.v., 4 hr after treatment) was 68.6 mg/dL, the “Blood Glucose Concentration” value ([5]; 80 mg/kg i.v., 7 hr after treatment) was 93.7 mg/dL and the “Blood Glucose Concentration” value ([5]; 80 mg/kg i.v., 10 hr after treatment) was 123.5 mg/dL. The “Blood Glucose Concentration” value ([5]; 80 mg/kg i.v., 24 hr after treatment) was 178.7 mg/dL, the “Blood Glucose Concentration” value ([5]; 80 mg/kg i.v., 48 hr after treatment) was 264.8 mg/dL and the LD50 at 168 h (Acute toxicity (LD50); ip) was 44 mg/kg. The LD50 at 168 h (Acute toxicity (LD50); po) was 1150 mg/kg.
